Legend:
[1] = system: rats subjected to 4 hours coronary ligation; test: Area at risk and infarct size after 4 hours coronary ligation (triphenyl tetrazolium chloride-Evan's blue staining); format: in vivo, rat; conditions: L-NAME 1x10^-3 g/kg
Procedure: Infarct size was determined by the triphenyl tetrazolium chloride-Evan's blue staining technique. The rat was sacrificed after its left descending coronary artery had been occluded for 4 hours. The weight of infarct tissue was expressed as a percentage of total ventricular weight or occluded zone. The difference in infarct size was statistically analyzed using unpaired Student's t-test. Table 4 Area at risk and infarct size in vehicle and THP-treated rats subjected to 4 hours coronary ligation
The difference in ischemic area and infarct size shown by staining technique after 4 hours of ischemia is evaluated. […] In the vehicle group, the necrotic area expresses either as a percentage of the area at risk (45.2±1.0%) or as a percentage of the total ventricle (19.8±2.2%), indicating the amount of cardiac tissue at risk becomes necrotic. Administration of THP reduces myocardial necrosis extension in a dose dependent manner. This reduction is observed either in the necrotic area/area at risk (38.1±5.0%, 29.0±2.5% and 10.7±1.8%/with 3.5x10^-7, 10^-6, 10^-5 g/kg of THP, respectively) or in the necrotic area/total ventricle (17.9+2.3%, 13.4±1.2% and 5.0±0.9% with 3.5x10^-7, 10^-6, 10^-5 g/kg of THP, respectively).

AV node conduction = test: His bundle electrogram of isolated heart, Langendorff perfusion, atrial pacing at 300 ms cycle length; set-up: species or system rats and guinea pigs; conditions: for atrial effective refractory period (AERP): before drug THP 60 ms, quinidine 40 ms; for ventricular effective refractory period (VERP): before drug THP 160 ms, quinidine 180 ms; for AV node effective refractory period (AVNERP): before drug THP 170 ms, quinidine 130 ms; for wenckbach cycle length (WCL): before drug THP 200 ms, quinidine 150 ms
Procedure: The investigation conforms to the Guide for the Care and Use of Laboratory Animals published by the US National Institutes of Health (NIH publication No. 85-23, revised 1996). Adult rats and guinea pigs were killed after hepariniation and anesthetization with urethane (1.25 g/kg i.p.). After isolating the heart, the aorta was perfused with 10µM quinidine and THP, respectively, by Langendorff perfusion. A pair of bipolar electrodes connected with silver wire were placed on the tip of the Triangle of Koch to record the His bundle electrogram. In addition, another pair of bipolar electrodes connected with silver wire were placed on the surface of the right ventricle to record T wave. […] The QT interval, conduction time through the sinoatrial (SA interval), the atrioventricular node (AH interval) and His-purkinje system (HV interval) were recorded, respectively, using electrocardiograph. Similarly, the recovery curve of His-purkinje system (i.e. the relationship of H2V2 and V1H2), atrial and ventricular refractory period and AV node refractory period were also recorded in the same manner. 1 and 2.
The SA, AH, HV intervals and T wave are prolonged in the quinidine-treated heart (FIG. 1). […] In addition, 3, 10 and 30µM THP can prolong the atrial effective refractory period (AERP) from 60 ms to 90, 100 and 120 ms, respectively; the ventricular effective refractory period (VERP) from 160 ms to 160, 170 and 190 ms, respectively; and the AV node effective refractory period (AVNERP) from 170 ms to 170, 200 and 240 ms, respectively. When compared with THP in the same manner, 3,10 and 30µM quinidine can prolong the AERP from 40 ms to 60, 80 and 130 ms; the VERP from 180 ms to 170, 180 and 190 ms; and the AVNERP from 130 ms to 150, 200 and 245 ms, respectively. Further, 3, 10 and 30µM THP can change the wenckbach cycle length (WCL) from 200 ms to 210, 230 and 280 ms, respectively; whereas 3, 10 and 30µM quinidine can change the WCL from 150 ms to 170, 210 and 300 ms, respectively. Both THP and quinidine prolong AERP, VERP and AVNERP, however, only quinidine inhibits conduction in AV node (prolonged AH interval). In contrast, even when the THP concentration raised to 10µM, the conduction in AV node is not inhibited.

[2] = system: guinea pig right ventricular strips; test: Ouabain-induced arrhythmia in electrically driven right ventricular strips; conditions: 10-20µM after 0.6-0.8µM ouabain
Procedure: The arrhythmia was then induced 5-10 minutes after. 10-20µM THP or its derivatives were administered to reverse the ouabain-induced arrhythmia. 6-7.
Referring to FIGs. […] The arrhythmia is then induced 5-10 minutes after.

SMILES: COC(=O)[C@@H](N)CCCNC(=N)N[N+](=O)[O-] [L-NAME, N^∞-nitro-L-arginine methyl ester, reference compound]
- Area at risk (% of ventricle) [1]: 47.5±0.2 % of ventricle
- Necrotic (% of Area at risk) [1]: 45.1±7.2 % of Area at risk
- Necrotic (% of ventricle) [1]: 21.4±3.5 % of ventricle

SMILES: C=C[C@H]1C[N@@]2CC[C@H]1C[C@@H]2[C@@H](O)c1ccnc2ccc(OC)cc12 [quinidine]
- atrial effective refractory period (AERP) (AV node conduction; 3µM): 60 ms
- ventricular effective refractory period (VERP) (AV node conduction; 3µM): 170 ms
- AV node effective refractory period (AVNERP) (AV node conduction; 3µM): 150 ms
- wenckbach cycle length (WCL) (AV node conduction; 3µM): 170 ms
- AH interval (conduction in AV node) (AV node conduction; 10µM, isolated perfused heart): prolonged
- HV interval (AV node conduction; 10µM, isolated perfused heart): prolonged
- SA interval (AV node conduction; 10µM, isolated perfused heart): prolonged
- T wave (AV node conduction; 10µM, isolated perfused heart): prolonged
- atrial effective refractory period (AERP) (AV node conduction; 10µM): 80 ms
- ventricular effective refractory period (VERP) (AV node conduction; 10µM): 180 ms
- AV node effective refractory period (AVNERP) (AV node conduction; 10µM): 200 ms
- wenckbach cycle length (WCL) (AV node conduction; 10µM): 210 ms
- atrial effective refractory period (AERP) (AV node conduction; 30µM): 130 ms
- ventricular effective refractory period (VERP) (AV node conduction; 30µM): 190 ms
- AV node effective refractory period (AVNERP) (AV node conduction; 30µM): 245 ms
- wenckbach cycle length (WCL) (AV node conduction; 30µM): 300 ms
- reversal of ouabain-induced arrhythmia [2]: does not reveal the efficacy
